Test results from patent US8263598B2, “Substituted sulfonamide compounds” (Gruenenthal GmbH, priority 2008, dated 2012).

Legend:
[1] = molecular target: T1, human B1R receptor (hB1R) (Homo sapiens, UniProt P46663); assay: FLIPR Ca2+ assay on human bradykinin 1 receptor (CHO K1 hB1R cells); assay type: cell-based; details: test substance 10 μM; CHO K1 cells with human B1R gene; agonist Lys-Des-Arg9-bradykinin 0.5 nM; compared to maximum achievable inhibition
T1 construct: host or cells: CHO K1 cells
T1 sequence (P46663 1-353): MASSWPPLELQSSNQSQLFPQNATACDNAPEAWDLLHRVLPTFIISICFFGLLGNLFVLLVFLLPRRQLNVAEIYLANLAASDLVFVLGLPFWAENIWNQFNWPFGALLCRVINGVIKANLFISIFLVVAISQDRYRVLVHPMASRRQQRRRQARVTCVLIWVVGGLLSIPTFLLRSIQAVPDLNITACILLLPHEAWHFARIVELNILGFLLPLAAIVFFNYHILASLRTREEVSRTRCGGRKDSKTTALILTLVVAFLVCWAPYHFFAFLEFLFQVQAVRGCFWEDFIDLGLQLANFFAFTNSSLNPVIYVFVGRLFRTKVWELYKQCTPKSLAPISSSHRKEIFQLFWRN
Method: (§1) The agonistic or antagonistic action of compounds can be quantified on the bradykinin 1 receptor (B1R) of humans and rats with ectopically expressing cell lines (CHO K1 cells) and with the aid of a Ca^2+-sensitive dye (Fluo-4) in the fluorescent imaging plate reader (FLIPR). The figure in percent activation refers to the Ca^2+ signal after addition of Lys-Des-Arg^9-bradykinin (0.5 nM) and Des-Arg^9-bradykinin (100 nM). Antagonists result in a suppression of the Ca^2+ inflow after the addition of the agonist. Percent inhibition values are given in comparison to the maximum achievable inhibition.
(§2) The agonistic or antagonistic action of substances can be determined on the bradykinin 1 receptor (B1R) of humans and rats by means of the following assay.
(§3) According to this assay the Ca^2+ inflow through the channel is quantified by means of a Ca^2+-sensitive dye (Fluo-4 type, Molecular Probes Europe BV, Leiden, Netherlands), in a Fluorescent Imaging Plate Reader (FLIPR, Molecular Devices, Sunnyvale, USA). Method:
(§4) Chinese hamster ovary cells (CHO K1 cells) are used, which are stably transfected with the human B1R gene (hB1R cells, Euroscreen s.a., Gosselies, Belgium), or with the B1R gene of rats (rB1R cells, Axxam, Milan, Italy). For functional investigations these cells are plated out on black 96-well plates with a clear floor (BD Biosciences, Heidelberg, Germany) in a density of 20,000/25,000 cells/well. The cells are incubated overnight with 10 vol. % FBS (foetal bovine serum, Gibco Invitrogen GmbH, Karlsruhe, Germany) at 37° C. and 5% CO2 in a culture medium (hB1R cells: Nutrient Mixture Ham's F12, Gibco Invitrogen GmbH, Karlsruhe, Germany; rB1R cells: D-MEM/F12, Gibco Invitrogen GmbH, Karlsruhe, Germany). The following day the cells are charged for 60 minutes at 37° C. with 2.13 μM Fluo-4 (Molecular Probes Europe BV, Leiden, Netherlands) in HBSS buffer (Hank's buffered saline solution, Gibco Invitrogen GmbH, Karlsruhe, Germany) together with […] (Sigma-Aldrich, Taufkirchen, Germany) and 10 mM HEPES (Sigma-Aldrich, Taufkirchen, Germany).
(§5) The plates are then washed twice with HBSS buffer and HBSS buffer is added which additionally contains 0.1% BSA (bovine serum albumin; Sigma-Aldrich, Taufkirchen, Germany), 5.6 mM glucose and 0.05% gelatin (Merck KGaA, Darmstadt, Germany). After further incubation for 20 minutes at room temperature the plates are used for the Ca^2+ measurement in the FLIPR. The Ca^2+-dependent fluorescence is measured both before and after the addition of substances (λex=488 nm, λem=540 nm). The quantification is carried out by measuring the highest fluorescence intensity (FC, fluorescence counts) over time.
(§6) The FLIPR protocol consists of two substance additions. First of all test substances (10 μM) are pipetted onto the cells and the Ca^2+ inflow is compared with the control (hB1R: Lys-Des-Arg9-bradykinin 0.5 nM; rB1R: Des-Arg9-bradykinin 100 nM). This gives the result in percent activation referred to the Ca^2+ signal after addition of Lys-Des-Arg9-bradykinin (0.5 nM), bzw. Des-Arg9-bradykinin (100 nM). After 10 minutes' incubation 0.5 nM Lys-Des-Arg9-bradykinin (hB1R) and 100 nM Des-Arg^9-bradykinin (rB1R) are applied and the inflow of Ca^2+ is likewise determined. Antagonists lead to a suppression of the Ca^2+ inflow. The percent inhibition compared to the maximum achievable inhibition is calculated. The compounds show a good activity on both human and rat receptors.
(§7) The agonistic and antagonistic action of the compounds according to the invention on the bradykinin 1 receptor (B1R) of humans and rats were determined as described above. Antagonists lead to a suppression of the Ca^2+ inflow. The % inhibition compared to the maximum achievable inhibition was calculated.

[2] = molecular target: T2, B1R receptor of rats (rB1R) (Rattus norvegicus, UniProt P97583); assay: FLIPR Ca2+ assay on rat bradykinin 1 receptor (CHO K1 rB1R cells); assay type: cell-based; details: test substance 10 μM; CHO K1 cells with B1R gene of rats; agonist Des-Arg9-bradykinin 100 nM; compared to maximum achievable inhibition
T2 construct: host or cells: CHO K1 cells
T2 sequence (P97583 1-337): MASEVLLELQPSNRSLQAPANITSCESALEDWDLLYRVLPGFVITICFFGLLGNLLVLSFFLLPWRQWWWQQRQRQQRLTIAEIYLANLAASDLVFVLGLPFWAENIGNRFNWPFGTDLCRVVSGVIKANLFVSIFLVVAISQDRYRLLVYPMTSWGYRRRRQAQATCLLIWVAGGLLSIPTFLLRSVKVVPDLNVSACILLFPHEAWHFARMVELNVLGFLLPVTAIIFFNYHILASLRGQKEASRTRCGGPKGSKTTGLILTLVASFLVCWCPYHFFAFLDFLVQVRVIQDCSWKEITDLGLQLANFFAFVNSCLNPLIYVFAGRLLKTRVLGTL
Method: as §1, §2, §3, §4, §5, §6, §7

inhibition at 10 µM [1]	inhibition at 10 µM [2]	SMILES
20%	75%	O=C(CC(NS(=O)(=O)c1ccc2ccccc2c1)c1ccccc1)N1CCn2c(CCc3ccncc3)ccc2C1 (centres unmarked) [Example 173, N-(3-Oxo-1-phenyl-3-(6-(2-(pyridin-4-yl)ethyl)-3,4-dihydropyrrolo[1,2-a]pyrazin-2(1H)-yl)propyl)naphthalene-2-sulfonamide]
101%	99%	Cc1cc(C)c(S(=O)(=O)N(C)CCOCC(=O)N2CCn3cccc3C2C(C)(C)C)c(C)c1 (centres unmarked) [Example 65, N-(2-(2-(1-tert-butyl-3,4-dihydropyrrolo[1,2-a]pyrazin-2(1H)-yl)-2-oxoethoxy)ethyl)-N,2,4,6-tetramethylbenzenesulfonamide]
100%	98%	COc1cccc(C2c3cccn3CCN2C(=O)COCCN(C)S(=O)(=O)c2c(C)cc(OC)c(C)c2C)c1 (centres unmarked) [Example 89, 4-methoxy-N-(2-(2-(1-(3-methoxyphenyl)-3,4-dihydropyrrolo[1,2-a]pyrazin-2(1H)-yl)-2-oxoethoxy)ethyl)-N,2,3,6-tetramethylbenzenesulfonamide]
100%	99%	COc1cc(C)c(S(=O)(=O)N(C)CCOCC(=O)N2CCn3cccc3C2c2ccc(Cl)nc2)c(C)c1 (centres unmarked) [Example 55, N-(2-(2-(1-(6-chloropyridin-3-yl)-3,4-dihydropyrrolo-[1,2-a]pyrazin-2(1H)-yl)-2-oxoethoxy)ethyl)-4-methoxy-N,2,6-trimethylbenzenesulfonamide]
100%	98%	COc1cc(C)c(S(=O)(=O)N(C)CCOCC(=O)N2CCn3cccc3C2c2cccs2)c(C)c1 (centres unmarked) [Example 60, 4-Methoxy-N,2,6-trimethyl-N-(2-(2-oxo-2-(1-(thiophen-2-yl)-3,4-dihydropyrrolo[1,2-a]pyrazin-2(1H)-yl)ethoxy)ethyl)benzenesulfonamide]
57%	96%	COc1cc(C)c(S(=O)(=O)N(CCOCC(=O)N2CCn3cccc3C2c2cccnc2)Cc2ccccc2)c(C)c1C (centres unmarked) [Example 41, N-benzyl-4-methoxy-2,3,6-trimethyl-N-(2-(2-oxo-2-(1-(pyridin-3-yl)-3,4-dihydropyrrolo[1,2-a]pyrazin-2(1H)-yl)ethoxy)ethyl)benzenesulfonamide]
71%	66%	COc1c(C)cc(S(=O)(=O)N(C)CCOCC(=O)N2CCn3cccc3C2c2ccc(F)c(F)c2)c(C)c1C (centres unmarked) [Example 33, N-(2-(2-(1-(3,4-difluorophenyl)-3,4-dihydropyrrolo[1,2-a]pyrazin-2(1H)-yl)-2-oxoethoxy)ethyl)-4-methoxy-N,2,3,5-tetramethylbenzenesulfonamide]
34%	95%	COc1cc(C)c(S(=O)(=O)N(CCOCC(=O)N2CCn3cccc3C2C)Cc2ccccc2)c(C)c1C (centres unmarked) [Example 40, N-benzyl-4-methoxy-2,3,6-trimethyl-N-(2-(2-(1-methyl-3,4-dihydropyrrolo[1,2-a]pyrazin-2(1H)-yl)-2-oxoethoxy)ethyl)benzenesulfonamide]
82%	98%	COc1cc(C)c(S(=O)(=O)N(CCOCC(=O)N2CCn3cccc3C2C(C)(C)C)CC(C)C)c(C)c1C (centres unmarked) [Example 18, N-(2-(2-(1-tert-butyl-3,4-dihydropyrrolo[1,2-a]pyrazin-2(1H)-yl)-2-oxoethoxy)ethyl)-N-isobutyl-4-methoxy-2,3,6-trimethylbenzenesulfonamide]
97%	71%	Cc1cc(C)c(S(=O)(=O)N(C)CCOCC(=O)N2CCn3cccc3C2c2ccc(C)c(C)c2)c(C)c1 (centres unmarked) [Example 72, N-(2-(2-(1-(3,4-dimethylphenyl)-3,4-dihydropyrrolo[1,2-a]pyrazin-2(1H)-yl)-2-oxoethoxy)ethyl)-N,2,4,6-tetramethylbenzenesulfonamide]
100%	102%	COc1cc(C)c(S(=O)(=O)N(C)CCOCC(=O)N2CCn3cc(-c4ccncc4)nc3C2)c(C)c1 [Example 175, 4-Methoxy-N,2,6-trimethyl-N-(2-(2-oxo-2-(2-(pyridin-4-yl)-5,6-dihydroimidazo[1,2-a]pyrazin-7(8H)-yl)ethoxy)ethyl)benzenesulfonamide]
104%	102%	COc1cc(C)c(S(=O)(=O)N(C)CCOCC(=O)N2CCn3cccc3C2C(C)C)c(C)c1 (centres unmarked) [Example 137, N-(2-(2-(1-isopropyl-3,4-dihydropyrrolo[1,2-a]pyrazin-2(1H)-yl)-2-oxoethoxy)ethyl)-4-methoxy-N,2,6-trimethylbenzenesulfonamide]
101%	102%	COc1cc(C)c(S(=O)(=O)N(CCOCC(=O)N2CCn3c(CN(C)C)ccc3C2c2ccccc2)Cc2ccccc2)c(C)c1 (centres unmarked) [Example 126, N-benzyl-N-(2-(2-(6-((dimethylamino)methyl)-1-phenyl-3,4-dihydropyrrolo[1,2-a]pyrazin-2(1H)-yl)-2-oxoethoxy)ethyl)-4-methoxy-2,6-dimethylbenzenesulfonamide]
41%	86%	CCCC1c2cccn2CCN1C(=O)COCCN(Cc1ccccc1)S(=O)(=O)c1c(C)cc(OC)c(C)c1C (centres unmarked) [Example 123, N-benzyl-4-methoxy-2,3,6-trimethyl-N-(2-(2-oxo-2-(1-propyl-3,4-dihydropyrrolo[1,2-a]pyrazin-2(1H)-yl)ethoxy)ethyl)benzenesulfonamide]
97%	100%	O=C(CC(NS(=O)(=O)c1ccc2ccccc2c1)c1ccccc1)N1CCn2c(CN3CCOCC3)ccc2C1 (centres unmarked) [Example 10, N-(3-(6-(morpholinomethyl)-3,4-dihydropyrrolo[1,2-a]pyrazin-2(1H)-yl)-3-oxo-1-phenylpropyl)naphthalene-2-sulfonamide]
97%	43%	COc1cccc(C2c3cccn3CCN2C(=O)COCCN(C)S(=O)(=O)c2cc(C)c(OC)c(C)c2C)c1 (centres unmarked) [Example 38, 4-methoxy-N-(2-(2-(1-(3-methoxyphenyl)-3,4-dihydropyrrolo[1,2-a]pyrazin-2(1H)-yl)-2-oxoethoxy)ethyl)-N,2,3,5-tetramethylbenzenesulfonamide]
